Source: patent publication US20110071148A1, “COMPOUNDS AS THE ESTROGEN RELATED RECEPTORS MODULATORS AND THE USES THEREOF” (Guangzhou Institute of Biomedicine and Health, Chinese …, priority 2008, published 2011)

Tests used:
[1] = target: T1, GAL-hERRα (human ERRalpha ligand binding domain) (Homo sapiens, UniProt P11474); assay: GAL4-hERRα ligand binding domain luciferase reporter assay (UASgx4-TK-Luc with CMV-PGC-1α) in HeLa cells; type: cell-based; conditions: for expression of reporter genes modulated by ERRα: HeLa cell
T1 construct: expressed in transfected cells; host or cells: HeLa cells, transient lipofection
Procedure: To test the effect of the compounds on ERRα and other nuclear hormone receptors, HeLa cells were transiently transfected with expression vectors for the receptors along with appropriate reporter constructs according to methods known in the art. Suitable reporter gene constructs are well known to skilled workers in the fields of biochemistry and molecular biology. Other vectors known in the art can be used in the methods of the present invention.
HeLa cells for the activation assays were grown in Dulbecco's modified Eagle's medium supplemented with 10% resin charcoal-stripped fetal bovine serum at 37° C. in 5% CO2. One day prior to transfection, cells were plated to 50-80% confluence to using phenol red free DMEM-FBS. The cells were transiently transfected by lipofection but other methods of transfection of DNA into cells can be utilized without deviating from the spirit of the invention. Luciferase reporter construct UASgx4-TK-Luc and cytomegalovirus-driven expression vector p-GAL, GAL-hERRα, GAL-L-hERRβ or Gal-mERRγ were added with CMV-PGC-1α. The cells were treated for approximately 24 hours with phenol red free DMEM-FBS containing 0.01% DMSO (control) or 0.01% DMSO with increasing concentrations of DK compounds.

[2] = Oral glucose tolerance test in high-fat-diet mice; type: in vivo, C57BL/J6 mice; conditions: compared to rosiglitazone 10 mg/kg/day
Procedure: Seven weeks old male C57BL/J6 mice were either fed chow diet or a high-fat-diet with 60% calories from lard for 10 weeks. Compounds were administered to animals by gavage for two weeks at different doses. Six groups of animals (n=5) were administered with either vehicle, 10 mg/kg/day rosiglitazone, 0.5 mg/kg/day DK1, 5 mg/kg/day DK1, 0.5 mg/kg/day DK3, or 5 mg/kg/day DK3. Animals were then orally fed glucose. Blood samples were withdrawn at time 0, 15, 30, 60 and 120 min. Blood glucose level was measured by monitor (Accu-chek Advantage, Roche). The changes in blood glucose level were plotted against time and the areas under the curve were calculated for the different groups.

[3] = test system: PGC1α-promoter reporter gene driven by ERRα; assay: PGC1α-promoter luciferase reporter assay driven by ERRα in HeLa cells; type: cell-based, human; conditions: about 24 hours, increasing concentrations, FIG. 4
From the text: HeLa were transiently transfected with the pGL3-promoter (Promega) derivative pGL3-PGC1α-promoter and expression vector for ERRα. The Renilla-Luciferase pRL-CMV Vector (Promega) was included as a control for transfection efficiency. The full length human ERRα was cloned into the expression vector pCMV. The pGL3-PGC1α-promoter was generated by cloning an insert derived from a PCR reaction using human genomic DNA as template and primers based on the 2.6 kbp upstream sequence of the PGC1α transcriptional start site.
HeLa cells for the activation assays were grown in Dulbecco's modified Eagle's medium supplemented with 10% fetal bovine serum at 37° C. in 5% CO2. One day prior to transfection, cells were plated to 50-80% confluence using DMEM-FBS. The cells were transiently transfected by lipofection but other methods of transfection of DNA into cells can be utilized without deviating from the spirit of the invention. Luciferase reporter construct pGL3-PGC1α-promoter and cytomegalovirus-driven expression vector pCMV or pCMV -hERRα were added. The cells were treated for approximately 24 hours with DMEM-FBS containing 0.01% DMSO (control) or 0.01% DMSO with increasing concentrations of DK compounds.

[4] = Liver weight and fatty liver in high-fat-diet mice; type: in vivo, C57BL/J6 mice; conditions: for liver weight: compared to rosiglitazone 10 mg/kg/d
Procedure: Seven weeks old male C57BL/J6 mice were either fed chow diet or a high-fat-diet with 60% calories from lard for 10 weeks. Compounds were administered to animals by gavage for two weeks at different doses. Six groups of animals (n=5) were administered with either vehicle, 10 mg/kg/day rosiglitazone, 0.5 mg/kg/day DK1, 5 mg/kg/day DK1, 0.5 mg/kg/day DK3, or 5 mg/kg/day DK3. Total body weight and livers wet weight from animals were measured. Liver samples to from animals were prepared by histological methods.

[5] = 0.5 mg/kg/day by gavage for two weeks
[6] = 5 mg/kg/day by gavage for two weeks

T1 sequence (P11474 193-421 limits assumed): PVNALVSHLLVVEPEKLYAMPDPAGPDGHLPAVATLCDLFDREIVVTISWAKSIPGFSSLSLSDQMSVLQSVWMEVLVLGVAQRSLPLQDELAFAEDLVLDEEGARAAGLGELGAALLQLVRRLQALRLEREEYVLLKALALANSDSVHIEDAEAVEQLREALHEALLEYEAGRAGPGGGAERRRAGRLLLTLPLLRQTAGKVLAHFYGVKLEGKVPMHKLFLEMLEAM
T1 sequence (P04386 1-147 partner limits assumed): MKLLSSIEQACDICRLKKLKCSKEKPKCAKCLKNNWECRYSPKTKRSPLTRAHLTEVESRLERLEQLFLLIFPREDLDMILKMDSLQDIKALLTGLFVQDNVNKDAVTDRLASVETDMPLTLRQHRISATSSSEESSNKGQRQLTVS
T1 sequence (O70343 whole entry partner, the tested form may be a part): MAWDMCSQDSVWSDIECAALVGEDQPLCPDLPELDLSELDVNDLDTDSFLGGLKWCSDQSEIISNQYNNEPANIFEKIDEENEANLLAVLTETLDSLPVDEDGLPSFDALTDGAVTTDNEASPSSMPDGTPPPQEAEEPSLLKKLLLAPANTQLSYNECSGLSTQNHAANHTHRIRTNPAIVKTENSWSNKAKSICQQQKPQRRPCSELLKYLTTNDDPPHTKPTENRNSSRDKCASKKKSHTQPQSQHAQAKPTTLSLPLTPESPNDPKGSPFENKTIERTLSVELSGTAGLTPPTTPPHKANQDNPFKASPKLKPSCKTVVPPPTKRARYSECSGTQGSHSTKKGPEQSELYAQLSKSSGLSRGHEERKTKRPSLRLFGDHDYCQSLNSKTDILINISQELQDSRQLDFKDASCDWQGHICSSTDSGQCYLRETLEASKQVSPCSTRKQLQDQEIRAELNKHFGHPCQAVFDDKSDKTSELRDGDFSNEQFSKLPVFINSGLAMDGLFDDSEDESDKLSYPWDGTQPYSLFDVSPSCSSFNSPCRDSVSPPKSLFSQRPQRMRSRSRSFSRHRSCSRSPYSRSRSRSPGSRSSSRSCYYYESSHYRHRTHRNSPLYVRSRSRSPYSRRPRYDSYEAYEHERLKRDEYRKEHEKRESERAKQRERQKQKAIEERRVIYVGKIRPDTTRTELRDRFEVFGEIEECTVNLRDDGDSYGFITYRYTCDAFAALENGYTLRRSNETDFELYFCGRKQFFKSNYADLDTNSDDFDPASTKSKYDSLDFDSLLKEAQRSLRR

Structure (SMILES) | expression of reporter genes modulated by ERRα [1] | reversal of the suppressive effect of ERRα specific inverse agonist XCT-790 ([1]; HeLa cells, FIG. 2) | activity of GAL-hERRα on reporter construct UASgx4-TK-Luc ([1]; HeLa cells, in the presence of CMV-PGC-1α, increasing concentrations) | area under the curve of the oral glucose tolerance test [2, 5] | area under the curve of the oral glucose tolerance test [2, 6] | PGC1α-promoter reporter gene driven by ERRα [3] | liver weight [4, 5] | liver weight [4, 6] | extent of fatty liver induced by high-fat-diet ([4]; gavage for two weeks, histology, FIGS. 7 and 8)
COc1ccc2c(=O)n(C)c(-c3ccc(Br)cc3)nc2c1 [Compound 4, 2-(4-bromophenyl)-7-methoxy-3-methylquinazolin-4(3H)-one] | effectively enhance | – | – | – | – | – | – | – | –
COc1ccc2c(=O)n(C)c(-c3ccccc3)nc2c1 [Compound 1, 7-methoxy-3-methyl-2-phenylquinazolin-4(3H)-one] | effectively enhance | dose-dependently reverses | dose-dependently enhances | reduced | reduced | dose-dependent enhancement | did not increase | did not increase | reduce the extent of fatty liver
COc1ccc2c(=O)n(C)c(-c3ccc(F)cc3)nc2c1 [Compound 3, 2-(4-fluorophenyl)-7-methoxy-3-methylquinazolin-4(3H)-one] | effectively enhance | – | – | – | – | – | – | – | –
